# According to patent US20240049713A1, “METHOD FOR CONTROLLING HERBICIDE-RESISTANT WEEDS” (SUMITOMO CHEMICAL COMPANY, LIMITED, priority 2020, published 2024):
# Where two headings read alike, the source gives them in different places.
# Legend:
# [1] = system: waterhemp (Amaranthus tuberculatus=Amaranthus rudis=Amaranthus tamariscinus) having Gly210 deficiency in PPO2; format: in vivo; conditions: rating 0 to 100, sprayed at plant height 20 cm, 200 L/ha, 1% (w/v) Agri-Dex, evaluated after 14 days in greenhouse
# [2] = system: PPO inhibitor-resistant weeds; experiment: plastic pot tests as Examples 1 to 72 and variants (Examples 73 to 3456)
# Method: On the same day, compound X is applied to the surface of soil so that the application rate of the compound X is 10, 20, 40 or 80 g/ha and the spray volume is 200 L/ha. The plastic pot is then placed in a greenhouse, and at 7 days after the application, soybeans are seeded, and further at 14 days after seeding the soybeans, the effect on the weeds and crop injuries on the soybeans are investigated.
# On the same day, compound X is applied to the surface of soil so that the application rate of the compound X is 10, 20, 40 or 80 g/ha and the spray volume is 200 L/ha. The soybeans are then cultivated in a greenhouse, and at 21 days after seeding, the effect on the weeds and crop injuries on the soybeans are investigated.
# The soybeans are then cultivated in a greenhouse, and at 21 days after seeding, compound X is foliar-treated so that the application rate of the compound X is 10, 20, 40 or 80 g/ha and the spray liquid amount is 200 L/ha. Further, the soybeans are cultivated in the greenhouse, and at 14 days after the application of compound X, the effect on the weeds and crop injuries on the soybeans are investigated.
# [3] = as Examples 1 to 216, RoundupPowerMax 32 fluid ounce/acre and XtendiMax 1 pint/acre further added
# [4] = applications as in Examples 1 to 72, compound X replaced, 10 to 80 g/ha
Structure (SMILES),herbicidal effect ([1]; 20 g/ha),herbicidal effect ([1]; 40 g/ha),"effect on the weeds [2, 3]","effect on the weeds [2, 4]"
CCOC(=O)COC(=O)C1(Oc2cc(-n3c(=O)cc(C(F)(F)F)n(C)c3=O)c(F)cc2Cl)CC1 [Compound X],99,99,effective control effect,–
COC(=O)COC(=O)C1(Oc2cc(-n3c(=O)cc(C(F)(F)F)n(C)c3=O)c(F)cc2Cl)CC1 [Compound Y],–,–,effective control effect,effective control effect
Cn1c(C(F)(F)F)cc(=O)n(-c2cc(OC3(C(=O)OCC(=O)O)CC3)c(Cl)cc2F)c1=O [Compound Z],–,–,effective control effect,effective control effect
"COC(=O)CCNC(=O)C(C)Sc1cc(-n2c(=O)cc(C(F)(F)F)n(C)c2=O)c(F)cc1Cl (stereo not drawn) [Tiafenacil, tiafenacil, reference compound]",50,70,–,–
